The values below come from PubChem BioAssay AID1259375 (The Scripps Research Institute Molecular Screening Center, 2018).

The term pIC50 denotes the negative decadic logarithm of the IC50, by convention in mol/L. Broadly, the IC50 is the concentration that inhibits the measured activity by half.

In this test the target is Microphthalmia-associated transcription factor (Homo sapiens) (UniProt O75030). Kind of test: MITF inhibitors by FRET titration, dose response, biochemical, high throughput (AID 1259375).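 Further: FRET between CFP-tagged and YFP-tagged MITF protein partners.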 To be noted: FRET biochemical assay, MITF inhibition.

The structures appear in SMILES notation. pIC50: −log10 of the molar value. Active and inactive are the calls of the source. How the calls were made is not given here.

Chain of Microphthalmia-associated transcription factor (Homo sapiens) (O75030 whole entry, looked up): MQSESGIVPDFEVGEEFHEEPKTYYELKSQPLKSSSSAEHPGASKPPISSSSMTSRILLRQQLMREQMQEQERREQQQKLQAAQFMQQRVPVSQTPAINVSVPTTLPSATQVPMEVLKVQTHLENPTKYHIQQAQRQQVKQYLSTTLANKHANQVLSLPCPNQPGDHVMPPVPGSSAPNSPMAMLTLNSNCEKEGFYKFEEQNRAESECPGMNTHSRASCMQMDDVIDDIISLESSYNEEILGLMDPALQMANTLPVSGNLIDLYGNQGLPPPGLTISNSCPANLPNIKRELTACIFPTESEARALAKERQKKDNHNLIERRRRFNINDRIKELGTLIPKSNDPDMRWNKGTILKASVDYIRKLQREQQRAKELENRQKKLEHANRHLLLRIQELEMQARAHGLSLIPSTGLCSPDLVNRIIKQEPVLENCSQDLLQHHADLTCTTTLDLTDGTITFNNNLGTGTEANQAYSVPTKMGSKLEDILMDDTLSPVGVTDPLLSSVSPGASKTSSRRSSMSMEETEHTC

`CC(=O)Oc1ccccc1N1C(=O)c2ccc(Oc3cccc(N)c3)cc2C1=O`: the pIC50 was 5.67.
As to `C[C@H]1C(=O)N2CCN(C(=O)NCc3ccccc3)C[C@@H]2C(=O)N1C`, the IC50 is > 6.48 µM (inactive).
The same measure, in the same setting: to `O=c1[nH]cnc2nc(-c3ccco3)c(-c3ccco3)nc12` belongs > 7.63 µM (inactive).
As to `O=P(O)(O)C(Cl)(Cl)P(=O)(O)O`, the IC50 is > 6.48 µM (inactive).
Still for that read-out and setting: to `O=c1[nH]c(/C=C/c2ccco2)nc(O)c1[N+](=O)[O-]` belongs “inactive”.
Take `Cc1cccc(CN2CCN(S(=O)(=O)c3ccccc3[N+](=O)[O-])CC2)c1`: the IC50 was > 5.08 µM (inactive).
Still for that read-out and setting: the same measure for `C/C(=N\NC(=O)Cc1cc(=O)[nH][nH]1)c1ccco1`: > 6.48 µM (inactive); for `O=C(O)c1ccc(-n2cccc2)cc1Cl`: > 6.48 µM (inactive); for `Cc1ncn(-c2ccc(N(C)c3ncc4cccc(-c5ccn[nH]5)c4n3)cc2)n1`: > 6.48 µM (inactive).
On the same count and under the same terms, to `Cc1cc(/C=C2/C=CC(=O)O2)oc1C` belongs > 7.29 µM (inactive); to `CSc1ccc(C(=O)O)s1`, > 10.2 µM (inactive); to `O=C(c1ccncc1)N1CCN(Cc2ccccc2[N+](=O)[O-])CC1`, > 6.13 µM (inactive).
Consider `COC(=O)CCc1cc2c(C)cc(=O)oc2cc1OCc1ccc(C)cc1`, for which the IC50 is > 6.48 µM (inactive).
Still for that read-out and setting: the same measure for `O=C(NCC(c1cccs1)S(=O)(=O)c1ccc(Cl)cc1)c1ccco1` (stereo unspecified): > 6.55 µM (inactive).
Still for that read-out and setting: to `c1ccc2c(c1)ncn2CC1CCN(Cc2cn3ccccc3n2)CC1` belongs > 6.48 µM (inactive).
Same read-out and setting: to `C/C(=N\Nc1ccc(S(=O)(=O)O)cc1)c1cccc(Br)c1` belongs > 6.48 µM (inactive).
Turning to `O=C1N[C@@H](Cc2ccccc2)C(=O)N2CCN(C(=O)NC3CCCCC3)C[C@H]12`, the IC50 is > 6.48 µM (inactive).
Still for that read-out and setting: to `O=C1NC(=S)N/C1=C\c1ccc([N+](=O)[O-])o1` belongs > 7.74 µM (inactive); to `CC(=O)NCC(c1cccs1)S(=O)(=O)c1ccc(C)cc1` (stereo unspecified), > 6.41 µM (inactive).
`O=C1O[C@H](C(O)CO)C(O)=C1O` (stereo partly specified): the IC50 was > 6.48 µM (inactive).
Consider `O=C(O)CCN(CCC(=O)O)c1ccc(O)cc1`, for which the pIC50 was 5.52.
In the case of `COc1cc(/C=N/N=C2\NC(=O)C(CC(=O)O)S2)ccc1OCc1ccc(C)cc1` (stereo unspecified), the IC50 was > 6.48 µM (inactive).
Still for that read-out and setting: to `Nc1ccc(NCCO)c(N)c1` belongs > 5.9 µM (inactive); to `NC(=O)c1cncc(-c2cccs2)c1`, > 6.5 µM (inactive); to `CC[C@H](C)[C@@H]1NC(=O)[C@H]2CN(C(=O)NC3CCCCC3)CCN2C1=O`, > 6.48 µM (inactive).
Same read-out and setting: the same measure for `O=C1Nc2c(C(=O)O)cccc2C1=O`: > 7.92 µM (inactive).
`CCS(=O)(=O)NCC(c1cccs1)S(=O)(=O)c1ccc(C)cc1` (stereo unspecified): the IC50 is > 6.6 µM (inactive).
For the compound `CCN1CCN(CCOCCOc2ccc(F)cc2)CC1`, the IC50 was > 6.48 µM (inactive).
As for `C=CCc1cc(C)ccc1OCCCCn1ccnc1`, the IC50 was > 6.48 µM (inactive).
Same read-out and setting: to `O=C(NCCN1CCOCC1)c1cccc(CN(C(=O)c2nc3ccc(-c4cn[nH]c4)cc3s2)C2CC2)c1` belongs > 6.48 µM (inactive).
Turning to `CCOC(=O)C1C2NC(=S)N(CC)C1(C)Oc1ccc(Cl)cc12` (stereo unspecified), the IC50 is > 8.6 µM (inactive).
As to `O=P(O)(O)C(O)(CCNC(=S)Nc1ccccc1)P(=O)(O)O`, the IC50 is > 6.83 µM (inactive).
Consider `COC(=O)c1c(NC(=O)c2ccc([N+](=O)[O-])o2)sc(Cc2ccc3c(c2)OCO3)c1C`, for which the IC50 is > 6.42 µM (inactive).
On the same count and under the same terms, the same measure for `CN(CCc1ccccn1)Cc1ccc(F)cc1`: > 6.59 µM (inactive).
Same read-out and setting: to `CCOc1ccccc1N1CCN(Cc2cc(OC)c(O)c([N+](=O)[O-])c2)CC1` belongs > 6.48 µM (inactive).
In the case of `CN(C)CCNc1nc(C2COc3ccccc3O2)nc2ccc(-c3cn[nH]c3)cc12` (stereo unspecified), the IC50 was > 6.48 µM (inactive).
`C[C@H]1NC(=O)[C@H]2CN(C(=O)NCc3ccccc3)CCN2C1=O`: the IC50 is > 6.48 µM (inactive).
In the case of `NC(=O)COC(=O)c1cc2c(s1)CCC2`, the IC50 was > 6.91 µM (inactive).
On the same count and under the same terms, to `CCCCn1c(=O)[nH]c(=O)c2c1nc(-c1ccc([N+](=O)[O-])o1)n2C` belongs > 7 µM (inactive).
Still for that read-out and setting: the same measure for `COc1cccc(CN2CCN(C(=O)c3ccc(F)cc3)CC2)c1`: > 5.27 µM (inactive); for `COc1cc(OC)c(C(=O)OC2CCCC2=O)cc1OC` (stereo unspecified): > 7.05 µM (inactive); for `O=C(O)c1cc(S(=O)(=O)Nc2ccc(-n3cnnn3)cc2)ccc1O`: > 7.18 µM (inactive).
The same measure, in the same setting: to `COc1ccc(/C=C2\N=C(c3ccc4c(c3)OCO4)OC2=O)cc1Cl` belongs > 5.41 µM (inactive).
For the compound `Cc1cc(C(=O)O)ccc1-c1ccc(/C=C2/NC(=O)NC2=O)o1`, the IC50 was > 6.48 µM (inactive).
Still for that read-out and setting: to `Clc1ccc(CN2CCN(Cc3c[nH]c4ccccc34)CC2)cc1` belongs > 5.86 µM (inactive).
Same read-out and setting: to `Cn1cc(-c2nc(Nc3ccc(-n4cnc(N5CCOCC5)n4)cc3)ncc2Br)cn1` belongs > 6.48 µM (inactive); to `COC(=O)CN1C(=O)S/C(=C/c2ccc([N+](=O)[O-])o2)C1=O`, > 6.48 µM (inactive).
Still for that read-out and setting: the same measure for `O=C(Nc1cc(S(=O)(=O)O)cc2cc(S(=O)(=O)O)cc(O)c12)c1ccccc1`: > 6.48 µM (inactive); for `O=C(/C=C/c1ccco1)NCC(=O)N/N=C/c1ccc(C(=O)O)cc1`: > 6.48 µM (inactive); for `O=C1NC(=O)/C(=C\c2ccc(O)cc2O)S1`: > 6.48 µM (inactive).
As for `O=C(NCc1cccnc1)c1ccnc(-c2cccs2)c1`, the IC50 is > 6.93 µM (inactive).
As for `CCC[C@@H]1NC(=O)[C@H]2CN(C(=O)NC3CCCCC3)CCN2C1=O`, the IC50 was > 6.48 µM (inactive).
Same read-out and setting: to `CCN1CCN(Cc2coc3ccccc3c2=O)CC1` belongs > 6.48 µM (inactive); to `Nc1cc(Br)cnc1N`, > 8.62 µM (inactive); to `COc1ccc(CCNC(=O)CN2CCN(Cc3nc(-c4ccco4)cs3)CC2)cc1OC`, > 6.48 µM (inactive).
On the same count and under the same terms, the same measure for `O=S(=O)(c1ccccc1C(F)(F)F)N1CCC(c2nc3ccccc3[nH]2)CC1`: > 6.48 µM (inactive); for `NC(=O)c1cc(NC(=O)COC(=O)COc2cccc(C(F)(F)F)c2)cc(C(N)=O)c1`: > 6.49 µM (inactive); for `Cc1ccc(/C=C/C(=O)NCc2ccccn2)o1`: > 6.48 µM (inactive).
The same measure, in the same setting: to `CC(C)NC(=O)c1cccc(NC(=O)Nc2ccc(-c3ncnc4[nH]cc(Cl)c34)cc2)c1` belongs > 6.48 µM (inactive); to `CC(C)[C@H]1NC(=O)[C@H]2CN(C(=O)NCc3ccccc3)CCN2C1=O`, > 6.48 µM (inactive); to `C[C@@H]1NC(=O)[C@H]2CN(C(=O)NCc3ccccc3)CCN2C1=O`, > 6.48 µM (inactive).
On to `O=C(O)c1ccc(O)c(C=Nc2ccc(N=Cc3cc(C(=O)O)ccc3O)cc2)c1`, for which the IC50 is > 6.48 µM (inactive).
Same read-out and setting: the same measure for `O=C1OC(c2ccc(Cl)cc2Cl)=N/C1=C\c1ccc([N+](=O)[O-])o1`: > 6.05 µM (inactive); for `O=C1N[C@@H](Cc2ccc(Cl)cc2)C(=O)N2CCN(C(=O)NCc3ccccc3)C[C@H]12`: > 6.48 µM (inactive); for `C=CCNC(=O)COC(=O)c1cc(-c2ccco2)nc2ccccc12`: > 6.94 µM (inactive).
In the case of `CCOC1=CC(c2ccc3c(c2)OCO3)CC(=O)c2c(C)oc(C)c21` (stereo unspecified), the IC50 was > 6.48 µM (inactive).
On to `O=C(O)c1cc([N+](=O)[O-])cc2c1-c1c(cc([N+](=O)[O-])cc1[N+](=O)[O-])/C2=C/c1ccco1`, for which the pIC50 was 5.75.
In the case of `O=C(NCc1ccccc1)N1CCN2C(=O)[C@H]3CCCN3C(=O)[C@H]2C1`, the IC50 was > 6.48 µM (inactive).
For the compound `NC(=O)c1ccc2nc(-c3cccs3)sc2c1`, the IC50 was > 6.18 µM (inactive).
Consider `CN(C)c1ccc(O)c2c1C[C@H]1C[C@H]3[C@H](N(C)C)C(=O)C(C(N)=O)=C(O)[C@@]3(O)C(=O)C1=C2O`, for which the pIC50 is 5.51.
On to `O=C1N[C@@H](Cc2c[nH]c3ccccc23)C(=O)N2CCN(C(=O)NC3CCCCC3)C[C@H]12`, for which the IC50 was > 6.48 µM (inactive).
On the same count and under the same terms, the same measure for `COCCCNC(=O)/C(C#N)=C/c1ccc(-c2ccc(Cl)c(C(=O)O)c2)o1`: > 6.48 µM (inactive).
Consider `O=C(Cn1ncn2cccc2c1=O)N1CCc2ccccc2C1`, for which the IC50 was > 6.48 µM (inactive).
On the same count and under the same terms, to `C[C@H](O)[C@H]1NC(=O)[C@H]2CN(C(=O)NCc3ccccc3)CCN2C1=O` belongs > 6.48 µM (inactive).
With `CC(C)NC(=O)/C(C#N)=C/c1ccc(-c2ccc([N+](=O)[O-])cc2Br)o1`, the IC50 is > 7.06 µM (inactive).
Still for that read-out and setting: the same measure for `COc1cc(CN2CCN(C3CCCC3)CC2)cc(OC)c1OC`: > 6.48 µM (inactive); for `CCc1ccc(NC(=O)CCc2nc(C3=CCN(C)CC3)no2)cc1`: > 6.48 µM (inactive).
The same measure, in the same setting: to `O=C1N[C@H](Cc2ccc(O)cc2)C(=O)N2CCN(C(=O)NCc3ccccc3)C[C@H]12` belongs > 6.48 µM (inactive); to `O=S(=O)(O)c1cc(S(=O)(=O)O)c2cc(O)c(S(=O)(=O)O)cc2c1`, > 6.48 µM (inactive); to `C=C1c2cccc(O)c2C(O)=C2C(=O)[C@]3(O)C(O)=C(C(N)=O)C(=O)[C@@H](N(C)C)[C@@H]3[C@@H](O)[C@H]12`, > 6.48 µM (inactive).
On the same count and under the same terms, the same measure for `O=S(=O)(O)c1ccc(N/N=C2\CCc3ccccc32)cc1`: > 6.48 µM (inactive); for `C[C@@H]1NC(=O)[C@H]2CN(C(=O)NC3CCCCC3)CCN2C1=O`: > 6.48 µM (inactive); for `O=P(O)(O)C(Sc1ccc(Cl)cc1)P(=O)(O)O`: > 6.48 µM (inactive).
Take `CCOc1ccc(CN2CCN(Cc3cccnc3)CC2)cc1`: the IC50 was > 5.78 µM (inactive).
Turning to `O=c1[nH]cccc1-c1ccc(Nc2nccc(-c3ccc4nc(C5CC5)[nH]c(=O)c4c3)n2)cc1`, the IC50 is > 6.48 µM (inactive).
The same measure, in the same setting: to `CNC(=O)Nc1ccc2nc(-c3ccco3)c(-c3ccco3)nc2c1` belongs > 6.48 µM (inactive).
